For one experiment, the target named is Hst2 (residues 1-294) (Saccharomyces cerevisiae, UniProt P53686). The experiment is described as follows: biased in vitro screening assay for relief of nicotinamide inhibition (Fluor de Lys). The experiment is classed as biochemical. Conditions: […] μM nicotinamide present. As for the experimental part:
This in vitro screen was carried out as follows.

For another experiment, the target named is Sir2 (Saccharomyces cerevisiae, UniProt P53686). It counts as biochemical. As for the experimental part: In parallel to the in silico screen, a solution screen for Sir2 effectors was carried out. A library containing about 10,000 Diversity Oriented Synthesis (DOS) compounds and natural product sub-libraries of compounds was screened using both yHst2 and hSIRT1 proteins.
Sequence of Sir2 (P53686 1-294): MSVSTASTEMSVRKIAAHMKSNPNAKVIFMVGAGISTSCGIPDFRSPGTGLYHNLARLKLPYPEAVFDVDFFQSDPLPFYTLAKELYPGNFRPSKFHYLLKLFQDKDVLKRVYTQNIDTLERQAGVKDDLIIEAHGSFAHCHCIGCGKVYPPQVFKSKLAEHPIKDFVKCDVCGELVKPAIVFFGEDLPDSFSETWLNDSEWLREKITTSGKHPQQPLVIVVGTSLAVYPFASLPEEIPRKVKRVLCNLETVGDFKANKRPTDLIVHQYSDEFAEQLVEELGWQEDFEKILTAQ

Sequence of Hst2 (residues 1-294) (P53686 1-294): as above

On to “6-(4-Fluoro- phenyl)-2,3- diphenyl-1,5- dihydro- imidazo[1,2- α]imidazole”, for which the “Fold Activation” value on Hst2 (residues 1-294) was 2.9.

For orientation: IC50 means the concentration at which inhibition is half-maximal. Zinc pyrithione [reference compound] yielded a half-inhibitory concentration (IC50) against Sir2 of 1.8 ± 1.3 µM.

For the compound `CC1(C)CC(=O)C2=C(C1)NC1=C(C(=O)CC(C)(C)C1)C2c1cccc(F)c1` [9-(3-Fluoro-phenyl)-3,3,6,6-tetramethyl-2,4,6,7,9,10-hexahydro-2H,5H-acridine-1,8-dione], the “Fold Activation” value on Hst2 (residues 1-294) was 2.2.

For the compound `O=C(O)CCN1Cc2ccccc2C1=O`, 19.8 ± 1.1 µM corresponded to half-maximal inhibition against Sir2 (IC50).

The record behind these values is US8180580B2, “Method for identifying a compound that modulates SIR2 protein activity” (The Wistar Institute, priority 2007, dated 2012).
